US20240148821A1, “PHARMACEUTICAL USE OF CYCLIC PEPTIDE COMPOUND” (CHUGAI SEIYAKU KABUSHIKI KAISHA, priority 2021, published 2024)
Numbered stars: 1 amine (or outer) side, 2 acyl side, 3 side chain; on linkers, the order of the positions; unused ones are H or OH. Bridge positions count the residues as written; N and C are the ends. Square brackets hold non-standard residues; d marks the D form. Peptide text beside a SMILES is read from it. * marks the point of attachment. hPhe(3-Cl-4-CF3) = N[C@@H](CCc1ccc(C(F)(F)F)c(Cl)c1)C(=O)O; NMePhe(4-CF3) = CN[C@@H](Cc1ccc(C(F)(F)F)cc1)C(=O)O; NMePhe(4-Me) = CN[C@@H](Cc1ccc(C)cc1)C(=O)O; NMeMet(O2) = CN[C@@H](CCS(C)(=O)=O)C(=O)O; NMedβ3hAla = C[C@H](CC(=O)[*:2])N(C)[*:1]; NMeGly(cPent) = CN[C@H](C(=O)O)C1CCCC1; NMeCha = CN[C@@H](CC1CCCCC1)C(=O)O; Hyp = O=C(O)[C@@H]1C[C@@H](O)CN1; NMeCba = CN[C@@H](CC1CCC1)C(=O)O; NMeChg = CN[C@H](C(=O)O)C1CCCCC1; NMeI = CC[C@H](C)[C@H](NC)C(=O)O; NMeD = CN[C@@H](CC(=O)O)C(=O)O; NMeL = CN[C@@H](CC(C)C)C(=O)O; NMehSer = CN[C@@H](CCO)C(=O)O; αMeL = CC(C)C[C@](C)(N)C(=O)O; NMeV = CN[C@H](C(=O)O)C(C)C; d(β3hA) = C[C@@H](N)CC(=O)O; NMeAbu = CC[C@H](NC)C(=O)O; NMeS = CN[C@@H](CO)C(=O)O; Morpholide = C1CN(*)CCO1; NMeA = CN[C@@H](C)C(=O)O; Piperidide = C1CCN(*)CC1; Ac5c = NC1(C(=O)O)CCCC1; Aze = O=C(O)[C@@H]1CCN1; CH2CMe2OH = CC(C)(O)C*; βAla = NCCC(=O)O; Sar = CNCC(=O)O

The molecules below were run on Human pancreatic cancer cell line AsPC-1 (G12D mutation Kras) (assay: AsPC-1 cell growth inhibition (AsPC-1 CGI)). Conditions: read-out: AsPC-1 cell growth inhibition, 50% growth inhibitory concentration (IC50 value); 96 hours, CellTiter-Glo, values classified in ranges.
Type: cell-based
Method: Test compounds were serially dilated with dimethyl sulfoxide, and 200 nL was then dispensed to a U-bottom 96-well plate using Labcyte Echo. […] The cell suspension was dispensed to a. plate containing a test compound at 100 μL per well and incubated at 37° C. in a 5% carbon dioxide gas incubator. 96 hours later, 80 μL of CellTiter-Glo (Promega) was added to each well and fluorescence was measured.
With CC[C@H](C)[C@@H]1NC(=O)[C@H](CC(C)C)N(C)C(=O)C[C@@H](C(=O)N2CCCCC2)N(C)C(=O)[C@H](C2CCCCC2)N(C)C(=O)C2(CCCC2)NC(=O)[C@@H]2CCCN2C(=O)[C@H](CCc2ccc(C(F)(F)F)c(Cl)c2)NC(=O)CN(C)C(=O)[C@H](CC)N(C)C(=O)CN(C)C(=O)CN(C)C1=O [Compound 1743] ([NMeL]I[Sar][Sar][NMeAbu][Sar][hPhe(3-Cl-4-CF3)]P[Ac5c][NMeChg][NMeD]-Piperidide; lactam N-11) the IC50 was > 500 nM.
With Cc1ccc(C[C@H]2C(=O)N(C)CC(=O)N[C@@H](CCc3ccc(C(F)(F)F)c(Cl)c3)C(=O)N3CCC[C@H]3C(=O)NC3(CCCC3)C(=O)N(C)[C@@H](C3CCCC3)C(=O)N[C@H](C)CC(=O)N(C)[C@@H](CC(C)C)C(=O)N[C@@H](C)C(=O)N(C)[C@@H](C)C(=O)N3CC[C@H]3C(=O)N2C)cc1 [Compound 1225] (cyclo(A[NMeA][Aze][NMePhe(4-Me)][Sar][hPhe(3-Cl-4-CF3)]P[Ac5c][NMeGly(cPent)][d(β3hA)][NMeL])) the IC50 was > 500 nM.
For CC[C@H](C)[C@@H]1NC(=O)[C@H](CC(C)C)N(C)C(=O)C[C@@H](C)N(C)C(=O)[C@H](CC2CCC2)N(C)C(=O)C2(CCCC2)NC(=O)[C@@H]2CCCN2C(=O)[C@H](CCc2ccc(C(F)(F)F)c(Cl)c2)NC(=O)CN(C)C(=O)[C@H](CC2CCCCC2)N(C)C(=O)CN(C)C(=O)CN(C)C1=O [Compound 723] (cyclo([Ac5c][NMeCba][NMedβ3hAla][NMeL]I[Sar][Sar][NMeCha][Sar][hPhe(3-Cl-4-CF3)]P)), the IC50 was > 500 nM.
For CC[C@H](C)[C@@H]1NC(=O)[C@H](CC(C)C)N(C)C(=O)C[C@@H](C(=O)N2CCCCC2)N(C)C(=O)[C@H](C(C)C)N(C)C(=O)C2(CCCC2)NC(=O)[C@@H]2CCCN2C(=O)[C@H](CCc2ccc(C(F)(F)F)c(Cl)c2)NC(=O)CN(C)C(=O)[C@H](CCS(C)(=O)=O)N(C)C(=O)[C@@H]2CCN2C(=O)[C@H](C)N(C)C1=O [Compound 235] ([NMeL]I[NMeA][Aze][NMeMet(O2)][Sar][hPhe(3-Cl-4-CF3)]P[Ac5c][NMeV][NMeD]-Piperidide; lactam N-11), the IC50 was > 500 nM.
CCO[C@@H]1C[C@H]2C(=O)NC3(CCCC3)C(=O)N(C)[C@@H]([C@@H](C)CC)C(=O)N(C)[C@H](C(=O)N3CCOCC3)CC(=O)N(C)[C@@H](CC(C)C)C(=O)N[C@@H]([C@@H](C)CC)C(=O)N(C)[C@@H](C)C(=O)N3CC[C@H]3C(=O)N(C)[C@@H](Cc3ccc(C(F)(F)F)cc3)C(=O)N(C)CC(=O)N[C@@H](CCc3ccc(C(F)(F)F)c(Cl)c3)C(=O)N2C1 [Compound 1330] ([NMeL]I[NMeA][Aze][NMePhe(4-CF3)][Sar][hPhe(3-Cl-4-CF3)][Hyp](Et)[Ac5c][NMeI][NMeD]-Morpholide; lactam N-11) was tested, and the IC50 was ≤ 20 nM.
With CC(C)C[C@H]1C(=O)N[C@@H](C)C(=O)N(C)CC(=O)N(C)CC(=O)N(C)[C@@H](CC2CCCCC2)C(=O)N(C)CC(=O)N[C@@H](CCc2ccc(C(F)(F)F)c(Cl)c2)C(=O)N2CCC[C@H]2C(=O)NC2(CCCC2)C(=O)N(C)[C@@H](C2CCCCC2)C(=O)N(C)[C@H](C(=O)N2CCCCC2)CC(=O)N1C [Compound 1802] ([NMeL]A[Sar][Sar][NMeCha][Sar][hPhe(3-Cl-4-CF3)]P[Ac5c][NMeChg][NMeD]-Piperidide; lactam N-11) the IC50 was > 500 nM.
CC[C@H](C)[C@@H]1NC(=O)[C@H](CC(C)C)N(C)C(=O)C[C@@H](C)N(C)C(=O)[C@H](C2CCCCC2)N(C)C(=O)C2(CCCC2)NC(=O)[C@@H]2CCCN2C(=O)[C@H](CCc2ccc(C(F)(F)F)c(Cl)c2)NC(=O)CN(C)C(=O)[C@H](CC2CCCCC2)N(C)C(=O)[C@@H]2CCN2C(=O)[C@H](C)N(C)C1=O [Compound 1813] (cyclo([Ac5c][NMeChg][NMedβ3hAla][NMeL]I[NMeA][Aze][NMeCha][Sar][hPhe(3-Cl-4-CF3)]P)) was tested, and the IC50 was > 500 nM.
With CC[C@H](C)[C@@H]1NC(=O)[C@H](CC(C)C)N(C)C(=O)C[C@@H](C(=O)N2CCCCC2)N(C)C(=O)[C@H](C2CCCCC2)N(C)C(=O)C2(CCCC2)NC(=O)[C@@H]2CCCN2C(=O)[C@H](CCc2ccc(C(F)(F)F)c(Cl)c2)NC(=O)CN(C)C(=O)[C@H](CCOC)N(C)C(=O)CN(C)C(=O)CN(C)C1=O [Compound 159] ([NMeL]I[Sar][Sar][NMehSer](Me)[Sar][hPhe(3-Cl-4-CF3)]P[Ac5c][NMeChg][NMeD]-Piperidide; lactam N-11) the IC50 was > 500 nM.
In the case of CC[C@H](C)[C@@H]1NC(=O)[C@H](CC(C)C)N(C)C(=O)C[C@@H](C)NC(=O)[C@H](C(C)C)N(C)C(=O)[C@](C)(CC(C)C)NC(=O)[C@@H]2CCCN2C(=O)[C@H](CCc2ccc(C(F)(F)F)c(Cl)c2)NC(=O)CN(C)C(=O)[C@H](CC2CCCCC2)N(C)C(=O)CN(C)C(=O)CN(C)C1=O [Compound 705] (cyclo(I[Sar][Sar][NMeCha][Sar][hPhe(3-Cl-4-CF3)]P[αMeL][NMeV][d(β3hA)][NMeL])), the IC50 is reported as > 500 nM.
For CC[C@H](C)[C@@H]1NC(=O)CCNC(=O)[C@H](COCC(C)(C)O)N(C)C(=O)[C@H](C2CCCCC2)N(C)C(=O)C2(CCCC2)NC(=O)[C@@H]2CCCN2C(=O)[C@H](CCc2ccc(C(F)(F)F)c(Cl)c2)NC(=O)CN(C)C(=O)[C@H](CC2CCCCC2)N(C)C(=O)CN(C)C(=O)CN(C)C1=O [Compound 605] (cyclo([Ac5c][NMeChg][NMeS](CH2CMe2OH)[βAla]I[Sar][Sar][NMeCha][Sar][hPhe(3-Cl-4-CF3)]P)), the IC50 was > 500 nM.
